From patent US7309494B2, “Peptides of the respiratory syncytial virus (RSV) G protein and their use in a vaccine” (Pierre Fabre Medicament, priority 2001, dated 2007) come the findings set out here.

Entries after “also recorded” stand apart in the source; their conditions may differ.

The test system of series [1] is RSV-A. In words: Anti-RSV-A antibody titer before and after immunization in naive mice. The class given is in vivo, Balb/c mice. The method, then:
(§1) In order to test the immunogenicity of the G23a and G20a peptides, Balb/c mice were immunized with 6 or 1.5 μg of G2Na equivalent twice, on D0 and D14, intramuscularly.
(§2) Some mice were sensitized with RSV 20 days before the first immunization in order to make them seropositive with respect to RSV. A sample was taken from the mice before each immunization and the anti-G2Na, RSV-A and RSV-B antibody titers were determined.

Series [2] in a line: Determination of the IHS (immediate hypersensitivity) in guinea pigs. The class given is in vivo. As to conditions: for death of the guinea pigs (dead/tested): i.m. D0 and D8 with 20% adjuphos, i.v. booster D21. The method, then: Guinea pigs are immunized on D0 and D8 with the various molecules adjuvented with 20% (v/v) adjuphos, given i.m. On D21, a booster is given with the various molecules, nonadjuvented, by i.v. The death of the guinea pigs is then evaluated.
A positive experimental control consisting of ovalbumin at 200 μg is included for each molecule tested (cf. table 3 below).

The test system of series [3] is RSV-A. Put plainly: Protection against an RSV-A challenge in immunized mice (viral titer 5 days after challenge). The class given is in vivo, Balb/c mice. As to conditions: naive mice. The method, then: as §1
Ten days after the final immunization, the mice were challenged with 10^5 pfu/50 μl of RSV-A. The viral titer was measured 5 days after the challenge.

Another series deals with RSV-B. Put plainly: Anti-RSV-B antibody titer before and after immunization in naive mice. The class given is in vivo. As to conditions: naive Balb/c mice, 6 or 1.5 μg G2Na equivalent i.m. on D0 and D14; after first immunization. The method, then:
as §1, §2

For the molecule “G20a: fragment of the G protein of RSV-A (140-190)-(144-158) of 69 amino acids, SEQ ID No.1”, the anti-RSV-A antibody response result in the series with RSV-A [1] (naive Balb/c mice, 6 or 1.5 μg G2Na equivalent i.m. on D0 and D14, after first immunization) was “develop anti-RSV-A and RSV-B antibody responses from the first immunization”. The “immunogenicity in naive mice (summary)” value in the series with RSV-A [1] (naive mice) is “immunogenic”. For the same molecule, the “death of the guinea pigs (dead/tested)” value in series [2] (4 mg) and in series [2] (40 mg) was 0/6 each time. In addition, the “induction of IHS” value in series [2] (guinea pigs, 6 animals tested) was “does not induce any IHS in 6/6 animals tested”. In addition, the “protection of the pulmonary tract subsequent to challenge with RSV-A” value in the series on RSV-A [3] (challenge 10^5 pfu/50 μl RSV-A ten days after final immunization) is given as “induces protection of the pulmonary tract; also recorded: protective”. Also, the “immunogenicity and protection compared with BBG2Na” value in the series on RSV-A [3] was “comparable to those observed with BBG2Na”. The anti-RSV-B antibody response entry with RSV-B was “develop anti-RSV-A and RSV-B antibody responses from the first immunization”.

B1: ovalbumin (protein, UniProt P01012 2-386, looked up)
Ovalbumin: GSIGAASMEFCFDVFKELKVHHANENIFYCPIAIMSALAMVYLGAKDSTRTQINKVVRFDKLPGFGDSIEAQCGTSVNVHSSLRDILNQITKPNDVYSFSLASRLYAEERYPILPEYLQCVKELYRGGLEPINFQTAADQARELINSWVESQTNGIIRNVLQPSSVDSQTAMVLVNAIVFKGLWEKAFKDEDTQAMPFRVTEQESKPVQMMYQIGLFRVASMASEKMKILELPFASGTMSMLVLLPDEVSGLEQLESIINFEKLTEWTSSNVMEERKIKVYLPRMKMEEKYNLTSVLMAMGITDVFSSSANLSGISSAESLKISQAVHAAHAEINEAGREVVGSAEAGVDAASVSEEFRADHPFLFCIKHIATNAVLFFGRCVSP
notes: positive experimental control consisting of ovalbumin at 200 μg
Regarding B1, the “death of the guinea pigs (dead/tested)” value in series [2] (positive control T+, ovalbumin at 200 μg) is listed as 5/6.
